# Experimental data reported in patent US12460177B2, “Composition for promoting efficiency of somatic cell replication” (SEOUL NATIONAL UNIVERSITY HOSPITAL, priority 2018, dated 2025).
# Test system: H3K9me3 / H3K4me3 binding at the Apobec1 (demethylase) promoter region
# Assay: ChIP-PCR with Apobec1 promoter primers in human mesenchymal stem cells treated with endothelin
# Type: cell-based
# Conditions: endothelin treatment, FIG. 1
# From the text: Human mesenchymal stem cells were transfected with siRNA of SMARCA4 or SMARCD2, treated with endothelin, and then harvested. In the present invention, human mesenchymal stem cells (Poietics™ Human Mesenchymal Stem Cells, Lonza) were used. The cells were selected by conducting a human mesenchymal stem cell identification experiment, and identified and classified as human bone marrow-derived stem cells after the expression of a positive cell marker (CD29, CD90, CD44, CD73, CD105 or CD166) for mesenchymal stem cells, the negative identification by a cell marker (CD34, CD45, CD14, HLA-DR or CD19), and the confirmation of multipotency of mesenchymal stem cells.
# Genomic DNA was extracted from the recovered cells, and reacted with a H3K9me3 or H3K4me3 antibody [anti-H3K9me3 (Abcam: cat. no. ab8898), anti-H3K4me3 (Abcam; cat. no. ab8580) or normal rabbit IgG (Cell Signaling Technology: cat. no. #2729): negative control], followed by ChIP-PCR performed using Apobec1 promoter primers that are able to confirm the binding of H3K9me3 or H3K4me3. […]
# Subsequently, the resulting product was heated at 65° C. for 4 hours to remove a crosslink. DNA fragments were collected using a PCR purification kit (Qiagen) and analyzed using qPCR and semi-quantitative PCR, and the results are shown in FIG. 1.
substance,measurement,setting,value
"endothelin (HLDIIW; listed as Mus musculus) [peptide generated in vascular endothelial cells, 21 amino acid residues, two S—S bonds, known as a vasoconstrictive peptide]",binding of H3K4me3 (promoting gene expression) at the demethylase promoter region,ChIP-PCR (anti-H3K4me3),increases
same,H3K9me3 (suppressing gene expression) at the demethylase promoter region,ChIP-PCR (anti-H3K9me3),detached
